Measured values reported in article PMC10042540, “Targeting oncogenic KRasG13C with nucleotide-based covalent inhibitors” (eLife, 2023).

Columns and labels:
[1] = molecular target: KRas; design: method as in Jeganathan et al., 2018; conditions: reversible affinity; ref Jeganathan et al., 2018; cited from earlier work
[2] = system: Ras pathway (pcRaf, pAkt, pErk, pS6); experiment: Electroporation into HeLa cells, western blot of downstream signalling; type: cell-based, human; conditions: electroporation of 50-300 µg protein
Experimental: (§1) HeLa cells were obtained from the American Type Culture Collection (ATCC) and were cultured in DMEM medium (Gibco) supplemented with 10% fetal bovine serum (FBS) (PAN-Biotech) and 1% penicillin/streptomycin (Gibco). Cells were cultured in a humidified incubator at 37 °C in the presence of 5% CO2. The identity of the cells was validated by STR profiling and the cells were tested negative for mycoplasma contamination.
(§2) Electroporation of full-length KRas constructs (KRasWT, KRasG13C, KRasG13C-edaGDP, KRasG13C:acetyledaGDP and KRasG13C-edaGppCp) was performed based on the protocol described by [Alex et al., 2019] using the Neon Transfection System Kit (Thermo Fisher). For electroporation, 3 million cells per experiment were harvested by trypsinization, washed with PBS, and resuspended in 85 µL of the electroporation buffer R (Thermo Fisher). Increasing amounts of recombinant protein samples for each construct (0, 50, 100, 200 and 300 µg) were diluted 1:1 in buffer R followed by the addition of 30 µL of this protein master mix to the cell suspension. This cellular slurry was loaded into a […] Neon Pipette Tip (Thermo Fisher) and electroporated with 2x35 ms pulses at 1000 V. After electroporation, the cells were washed twice with PBS (15 mL) to remove non-internalized extracellular protein and the cell pellet was resuspended in 2 mL complete growth media. Cells were transferred into six-well tissue culture plates (Sarstedt) and incubated for 24 hr at 37 °C and 5% CO2 in a humidified incubator for recovery before being processed for western blotting analysis.
After recovery of the electroporation, cells were washed twice with ice-cold PBS and lysed in 100 µL of phosphatase and protease inhibitor containing RIPA buffer (Cell Signaling Technology). Cells were incubated on ice for 30 min and then harvested by scraping followed by centrifugation at 14,000 rpm for 10 min at 4 °C. Protein concentrations were determined using the Pierce BCA protein assay (Thermo) following the manufacturer’s recommended procedure. Equal amounts of protein (10 µg) were analyzed by SDS-PAGE and transferred to Immobilon-FL PVDF membranes (Merck Millipore) using Pierce 1-step transfer buffer (Thermo) and the Pierce Power Blotter (Thermo). Membranes were washed with ddH2O for 5 min, blocked with OdysseyBlocking Buffer TBS (Li-Cor) for 1 hr at room temperature and then incubated with primary antibodies diluted in OdysseyBlocking Buffer TBS overnight at 4 °C with gentle agitation. […] Quantification of protein levels from western blots was performed using Empiria Studio (Li-Cor) (Figure 3B, C, Figure 3—figure supplements 6–9).

[3] = system: tErk; experiment: Electroporation into HeLa cells, western blot quantification; type: cell-based, human; conditions: for tErk mean fold change: mean of cell lysates
Experimental: as §1, §2
(§3) After recovery of the electroporation, cells were washed twice with ice-cold PBS and lysed in 100 µL of phosphatase and protease inhibitor containing RIPA buffer (Cell Signaling Technology). Cells were incubated on ice for 30 min and then harvested by scraping followed by centrifugation at 14,000 rpm for 10 min at 4 °C. Protein concentrations were determined using the Pierce BCA protein assay (Thermo) following the manufacturer’s recommended procedure. Equal amounts of protein (10 µg) were analyzed by SDS-PAGE and transferred to Immobilon-FL PVDF membranes (Merck Millipore) using Pierce 1-step transfer buffer (Thermo) and the Pierce Power Blotter (Thermo). Membranes were washed with ddH2O for 5 min, blocked with OdysseyBlocking Buffer TBS (Li-Cor) for 1 hr at room temperature and then incubated with primary antibodies diluted in OdysseyBlocking Buffer TBS overnight at 4 °C with gentle agitation. KRas (Sigma Aldrich, SAB1404011-100UG), pcRafS338 (CST, 9427), tAkt1 (CST, 2938), pAktS473 (CST, 4060), tErk (CST, 4696), pErkT202/Y204 (CST, 4370), pS6S235/236 (CST, 4858), and β-actin (CST, 4970/Sigma-Aldrich, A5441) antibodies were used to detect the individual proteins. After primary antibody incubation, membranes were washed three times with TBS-T (50 mM Tris, 150 mM NaCl, 0.05% Tween 20, pH 7.4) for 5 min before being incubated with secondary antibodies (anti-mouse IgG (H+L) (DyLight 680 Conjugate) (CST, 5470) / anti-rabbit IgG (H+L) (DyLight 800 4 X PEG Conjugate) (CST, 5151)) diluted in OdysseyBlocking Buffer TBS for 1 hr at room temperature with gentle agitation. After secondary antibody incubation, the membranes were washed three times for 5 min with TBS-T and then scanned using an OdysseyCLx imaging system (Li-Cor). Quantification of protein levels from western blots was performed using Empiria Studio (Li-Cor) (Figure 3B, C, Figure 3—figure supplements 6–9).

[4] = system: pcRafS338; experiment: as above; type: cell-based, human; conditions: for pcRaf mean fold change: mean of cell lysates
Experimental: as §1, §2, §3

[5] = system: pErkT202/Y204; experiment: as above; type: cell-based, human; conditions: for pErk mean fold change: mean of cell lysates
Experimental: as §1, §2, §3

[6] = system: pS6S235/236; experiment: as above; type: cell-based, human; conditions: for pS6 mean fold change: mean of cell lysates
Experimental: as §1, §2, §3

[7] = system: pAktS473; experiment: as above; type: cell-based, human; conditions: for pAkt mean fold change: mean of cell lysates
Experimental: as §1, §2, §3

[8] = system: tAkt1; experiment: as above; type: cell-based, human; conditions: for tAkt mean fold change: mean of cell lysates
Experimental: as §1, §2, §3

[9] = system: SOS; experiment: Guanine nucleotide-exchange factor assay (mantdGDP fluorescence); type: biochemical; conditions: 5 µM KRas1-169, 10 µM mantdGDP, 0.25 or 0.5 µM SOS
Experimental: SOS-catalysed nucleotide exchange was monitored at 25 °C in a FluoroMax-3 spectrofluorometer (excitation at 360 nm, emission at 440 nm) in 20 mM HEPES (pH 7.5), 100 mM NaCl, 2 mM MgCl2, and 1 mM TCEP. 5 µM KRas1-169 was mixed with 10 µM mantdGDP and subsequently with different concentrations of SOS (0.25 µM and 0.5 µM) (Figure 3A; Figure 3—figure supplement 1).

Q: Which Kd [1] does the source give for `Nc1nc2c(ncn2[C@@H]2O[C@H](COP(=O)(O)OP(=O)(O)OCCNC(=O)CCl)[C@@H](O)[C@H]2O)c(=O)[nH]1` [SML-8-73-1] here?
A: The Kd was about 140 nM.

Q: What does the source list for “KRasG13C:acetyledaGDP: KRasG13C non-covalently loaded with acetyledaGDP, control”?
A: downstream signalling (pcRaf, pAkt, pErk, pS6) [2]: activation of the Ras pathway comparable to KRasG13C was observed; tErk fold change ([3]; 50 µg, Cell lysate 1): 0.88; tErk fold change ([3]; 50 µg, Cell lysate 2): 0.96; tErk fold change ([3]; 50 µg, Cell lysate 3): 0.92; tErk mean fold change ([3]; 50 µg): 0.92; tErk fold change ([3]; 100 µg, Cell lysate 1): 0.68; tErk fold change ([3]; 100 µg, Cell lysate 2): 0.93; tErk fold change ([3]; 100 µg, Cell lysate 3): 0.86; tErk mean fold change ([3]; 100 µg): 0.82; tErk fold change ([3]; 200 µg, Cell lysate 1): 0.80; tErk fold change ([3]; 200 µg, Cell lysate 2): 0.93; tErk fold change ([3]; 200 µg, Cell lysate 3): 0.97; tErk mean fold change ([3]; 200 µg): 0.90; tErk fold change ([3]; 300 µg, Cell lysate 1): 0.62; tErk fold change ([3]; 300 µg, Cell lysate 2): 0.90; tErk fold change ([3]; 300 µg, Cell lysate 3): 1.12; tErk mean fold change ([3]; 300 µg): 0.88; pcRaf fold change ([4]; 50 µg, Cell lysate 1): 8.73; pcRaf fold change ([4]; 50 µg, Cell lysate 2): 1.10; pcRaf fold change ([4]; 50 µg, Cell lysate 3): 15.70; pcRaf mean fold change ([4]; 50 µg): 8.51; pcRaf fold change ([4]; 100 µg, Cell lysate 1): 8.39; pcRaf fold change ([4]; 100 µg, Cell lysate 2): 1.51; pcRaf fold change ([4]; 100 µg, Cell lysate 3): 22.70; pcRaf mean fold change ([4]; 100 µg): 10.87; pcRaf fold change ([4]; 200 µg, Cell lysate 1): 13.70; pcRaf fold change ([4]; 200 µg, Cell lysate 2): 2.17; pcRaf fold change ([4]; 200 µg, Cell lysate 3): 32.40; pcRaf mean fold change ([4]; 200 µg): 16.09; pcRaf fold change ([4]; 300 µg, Cell lysate 1): 10.10; pcRaf fold change ([4]; 300 µg, Cell lysate 2): 3.88; pcRaf fold change ([4]; 300 µg, Cell lysate 3): 30.30; pcRaf mean fold change ([4]; 300 µg): 14.76; pErk fold change ([5]; 50 µg, Cell lysate 1): 3.76; pErk fold change ([5]; 50 µg, Cell lysate 2): 14.50; pErk fold change ([5]; 50 µg, Cell lysate 3): 5.88; pErk mean fold change ([5]; 50 µg): 8.05; pErk fold change ([5]; 100 µg, Cell lysate 1): 5.77; pErk fold change ([5]; 100 µg, Cell lysate 2): 17.10; pErk fold change ([5]; 100 µg, Cell lysate 3): 6.22; pErk mean fold change ([5]; 100 µg): 9.70; pErk fold change ([5]; 200 µg, Cell lysate 1): 14.00; pErk fold change ([5]; 200 µg, Cell lysate 2): 22.30; pErk fold change ([5]; 200 µg, Cell lysate 3): 9.35; pErk mean fold change ([5]; 200 µg): 15.22; pErk fold change ([5]; 300 µg, Cell lysate 1): 17.00; pErk fold change ([5]; 300 µg, Cell lysate 2): 29.30; pErk fold change ([5]; 300 µg, Cell lysate 3): 10.30; pErk mean fold change ([5]; 300 µg): 18.87; pS6 fold change ([6]; 50 µg, Cell lysate 1): 1.20; pS6 fold change ([6]; 50 µg, Cell lysate 2): 4.69; pS6 fold change ([6]; 50 µg, Cell lysate 3): 4.24; pS6 mean fold change ([6]; 50 µg): 3.38; pS6 fold change ([6]; 100 µg, Cell lysate 1): 1.62; pS6 fold change ([6]; 100 µg, Cell lysate 2): 7.62; pS6 fold change ([6]; 100 µg, Cell lysate 3): 3.73; pS6 mean fold change ([6]; 100 µg): 4.32; pS6 fold change ([6]; 200 µg, Cell lysate 1): 3.38; pS6 fold change ([6]; 200 µg, Cell lysate 2): 9.20; pS6 fold change ([6]; 200 µg, Cell lysate 3): 7.24; pS6 mean fold change ([6]; 200 µg): 6.61; pS6 fold change ([6]; 300 µg, Cell lysate 1): 2.82; pS6 fold change ([6]; 300 µg, Cell lysate 2): 9.13; pS6 fold change ([6]; 300 µg, Cell lysate 3): 7.42; pS6 mean fold change ([6]; 300 µg): 6.46; pAkt fold change ([7]; 50 µg, Cell lysate 1): 0.68; pAkt fold change ([7]; 50 µg, Cell lysate 2): 2.89; pAkt fold change ([7]; 50 µg, Cell lysate 3): 3.02; pAkt mean fold change ([7]; 50 µg): 2.20; pAkt fold change ([7]; 100 µg, Cell lysate 1): 0.79; pAkt fold change ([7]; 100 µg, Cell lysate 2): 4.04; pAkt fold change ([7]; 100 µg, Cell lysate 3): 4.42; pAkt mean fold change ([7]; 100 µg): 3.08; pAkt fold change ([7]; 200 µg, Cell lysate 1): 1.19; pAkt fold change ([7]; 200 µg, Cell lysate 2): 9.05; pAkt fold change ([7]; 200 µg, Cell lysate 3): 6.20; pAkt mean fold change ([7]; 200 µg): 5.48; pAkt fold change ([7]; 300 µg, Cell lysate 1): 2.16; pAkt fold change ([7]; 300 µg, Cell lysate 2): 13.30; pAkt fold change ([7]; 300 µg, Cell lysate 3): 3.81; pAkt mean fold change ([7]; 300 µg): 6.42; tAkt fold change ([8]; 50 µg, Cell lysate 1): 0.92; tAkt fold change ([8]; 50 µg, Cell lysate 2): 2.42; tAkt fold change ([8]; 50 µg, Cell lysate 3): 1.53; tAkt mean fold change ([8]; 50 µg): 1.62; tAkt fold change ([8]; 100 µg, Cell lysate 1): 1.23; tAkt fold change ([8]; 100 µg, Cell lysate 2): 2.03; tAkt fold change ([8]; 100 µg, Cell lysate 3): 1.95; tAkt mean fold change ([8]; 100 µg): 1.74; tAkt fold change ([8]; 200 µg, Cell lysate 1): 1.36; tAkt fold change ([8]; 200 µg, Cell lysate 2): 3.63; tAkt fold change ([8]; 200 µg, Cell lysate 3): 1.80; tAkt mean fold change ([8]; 200 µg): 2.26; tAkt fold change ([8]; 300 µg, Cell lysate 1): 0.81; tAkt fold change ([8]; 300 µg, Cell lysate 2): 4.18; tAkt fold change ([8]; 300 µg, Cell lysate 3): 2.17; tAkt mean fold change ([8]; 300 µg): 2.39; SOS-catalysed nucleotide exchange [9]: efficiently catalysed nucleotide exchange
